How the values were obtained:
[1] = system: α-DNP antibody / ASGPR on hepatocytes; experiment: Ternary complex formation between hepatocytes and α-DNP antibody; format: cell-based
α-DNP antibody [2] = experiment: Endocytosis of α-DNP antibody in hepatocytes; format: cell-based; settings: FIG. 6C; 12 hour time point
α-DNP antibody [3] = experiment: Colocalization microscopy studies (Alexa 488 signal, EEA1/LAMP2); format: cell-based; settings: FIG. 7A
Method: Cells were grown in 8-well microscope cell culture containers (Thermo, 177402) treated with polylysine (Fisher Scientific, 343810001). For all experiments, D-MoDE-A was used at a final concentration of 40 nM, and antibody was used at a final concentration of 100 nM. At 12 hours, cell culture media was removed and cells were washed with PBS once before fixation with 3.5% formaldehyde PBS solution for 13 minutes. Cells were then washed with PBS, and permeabilized for 5 minutes with 0.5% triton X-100 in PBS. Cells were blocked with 0.2% tween in TBS (Tween 20, AmericanBio, Ref AB02038-00500) and 3% BSA (Sigma, A9418) for one hour at room temperature. […] After incubation for 1 hour in a humidified chamber protected from light, cells were washed 3× with PBST for 5 minutes each. Cells were then treated with Alexa Fluor 568-labeled secondary antibody (Abcam, ab175473) at 1:500 dilution. Cells were washed 3× with PBST for 5 minutes each, then treated with PBS containing Hoechst stain (final concentration 1 μg/mL), incubated at room temperature for at least 10 minutes, and imaged. Cells were visualized using a Zeiss Axio Observer Z1 inverted microscope using 63× magnification under oil. Image analysis was performed on ZEN2 (blue edition) version 2.0.0.0.

α-DNP antibody [4] = experiment: In vivo serum levels of α-DNP antibody in mice (ELISA); settings: FIG. 8D, single variable dose
Method: In vivo experiments were performed under Yale University IACUC supervision following protocol entitled “pre-clinical evaluation of small molecule immunomodulators” (Protocol number 2017-11445). Experiments were performed in male nude mice purchased from Jackson Laboratory (NU/J, Stock No. 002019). Compounds were administered i.p. in a volume of 100 μL PBS. Approximately 25 μL of blood was collected at each time point by saphenous bleed. Antibody was administered as 40 μg in 100 μL i.p. Compounds were administered daily at the specified dose throughout the course of experiments. For data analysis, antibody levels were normalized to the recorded concentration of antibody observed in each mouse 24 hours after the i.p. administration.
ELISA analysis of serum samples was performed using MaxiSorp 96 well plates (Thermo, 44-2404-21). Plates were coated with 50 μL of BSA-DNP (Invitrogen, A23018) at 100 ug/mL in PBS and incubated at 4° C. overnight. Coating solution was then removed, and the plates were blocked with 2% BSA in PBS for 2 hours at room temperature, followed by washing twice with PBST (0.2% Tween). Serum samples were diluted in 2% BSA in PBS. […] The plates were then treated with TMB (Thermo 34028) followed by 2 M H2SO4 and analyzed for OD at 450 nm on a plate reader (BioTek Synergy 2). Sample concentrations were determined against a standard curve.

Structure (SMILES): CC(=O)N[C@H]1[C@H](OCCOCCOCCNC(=O)CCOCC(COCCC(=O)NCCOCCOCCO[C@@H]2O[C@H](CO)[C@H](O)[C@H](O)[C@H]2NC(C)=O)(COCCC(=O)NCCOCCOCCO[C@@H]2O[C@H](CO)[C@H](O)[C@H](O)[C@H]2NC(C)=O)NC(=O)CNC(=O)COCCOCCOCCNc2ccc([N+](=O)[O-])cc2[N+](=O)[O-])O[C@H](CO)[C@H](O)[C@@H]1O [D-MoDE-A]
- formation of a ternary complex between hepatocytes and α-DNP antibody ([1]; FIG. 6A): dependent on the concentration of D-MoDE-A
- ternary complex formation in presence of competitive binders of ASGPR or α-DNP antibody ([1]; FIG. 6B): inhibited by competitive binders of either ASGPR or α-DNP antibody
- endocytosis of α-DNP antibody in hepatocytes (α-DNP antibody [2]): dependent on both α-DNP antibody and DMoDE-A concentration
- Alexa 488 signal in colocalization studies (α-DNP antibody [3]): dependent on the presence of α-DNP antibody and D-MoDE-A
- serum levels of α-DNP antibody (α-DNP antibody [4]): decrease in serum levels of α-DNP antibody

From patent US12128105B2, “Molecular degraders of extracellular proteins” (priority 2021, dated 2024)
